In paper PMC12442245, “Activity Analysis of the P2X Receptor Antagonist PPADS against Signal Transducer and Activator of Transcription Proteins” (Chembiochem, 2025):

Molecular target: T1, STAT1 (Homo sapiens, UniProt P42224)
T1 sequence (P42224 1-750): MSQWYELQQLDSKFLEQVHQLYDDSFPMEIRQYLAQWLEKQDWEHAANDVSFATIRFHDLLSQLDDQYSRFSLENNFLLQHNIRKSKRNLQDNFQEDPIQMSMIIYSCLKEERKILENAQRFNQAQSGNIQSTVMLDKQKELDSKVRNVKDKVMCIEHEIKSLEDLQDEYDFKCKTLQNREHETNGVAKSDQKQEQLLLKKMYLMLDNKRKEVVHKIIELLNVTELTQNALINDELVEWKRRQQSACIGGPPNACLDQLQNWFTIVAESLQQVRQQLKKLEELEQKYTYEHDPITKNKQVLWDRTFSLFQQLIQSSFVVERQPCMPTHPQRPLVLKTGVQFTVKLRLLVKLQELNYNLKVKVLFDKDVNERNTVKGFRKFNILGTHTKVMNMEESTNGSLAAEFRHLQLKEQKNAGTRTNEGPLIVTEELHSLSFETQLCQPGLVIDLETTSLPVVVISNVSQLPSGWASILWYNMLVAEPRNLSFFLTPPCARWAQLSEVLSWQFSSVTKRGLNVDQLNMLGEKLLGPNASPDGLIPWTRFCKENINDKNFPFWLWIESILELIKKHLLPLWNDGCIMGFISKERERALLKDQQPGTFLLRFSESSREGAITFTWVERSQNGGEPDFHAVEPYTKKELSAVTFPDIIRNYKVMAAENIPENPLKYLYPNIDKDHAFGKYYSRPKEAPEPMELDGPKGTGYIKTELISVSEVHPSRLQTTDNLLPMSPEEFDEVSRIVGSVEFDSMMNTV
Assay: Competitive fluorescence polarization (FP) assay, STAT1
Format: binding
Description: Screening of chemical libraries
Screening of chemical libraries comprising approximately 5000 known bioactive compounds in fluorescence polarization-based assays against phosphorylation-dependent protein-protein interaction domains, including STAT proteins, has been described.[1] PPADS was purchased from Sigma-Aldrich, and iso-PPADS from Bio-Techne.
Fluorescence polarization assays
Competitive fluorescence polarization (FP) assays for STAT1,[2] STAT3,[3] STAT4,[4] STAT5a,[5] STAT5b[6] and STAT6[1] were performed as previously described. Briefly, peptide binding to proteins was analyzed using the following carboxyfluorescein (CF) -labelled pepti des at a concentration of 10 nM: STAT1: 5-CF-GpYDKPHVL-OH, STAT3: 5-CF-GpYLPQTV -NH2, STAT4: 5-CF-GpYLPQNID-OH, STAT5a and STAT5b: 5-CF-GpYLVLDKW-OH, STAT6: 5- […]
CFGp[…]-OH. Proteins were used at a final concentration representing the approximate Kd value for binding of the corresponding peptide to the protein, namely 65 nM for STAT1, 65 nM for STAT3, 35 nM for STAT4, 125 nM for STAT5a, 65 nM for STAT5b and 75 nM for STAT6. Assays were carried out in buffer containing 10 mM Tris/HCl, 50 mM NaCl, 1 mM EDTA, 0.1% NP-40 substitute and 2% DMSO, with 1 mM reducing agent where applicable, at pH 8.0. […] FP was measured using an Infinite F500 plate reader (Tecan) and measurements were converted into percent inhibition according to […]

SMILES	IC50 (no reducing agent, 1 h) [µM]	inhibition at 100 µM (at 100 μM, the highest concentration tested) [%]
Cc1nc(/N=N/c2ccc(S(=O)(=O)O)cc2S(=O)(=O)O)c(COP(=O)(O)O)c(C=O)c1O [PPADS, pyridoxalphosphate‐6‐azophenyl‐2',4'‐disulfonic acid]	87.4 ± 6.6	–
Cc1nc(/N=N/c2cc(S(=O)(=O)O)ccc2S(=O)(=O)O)c(COP(=O)(O)O)c(C=O)c1O [iso‐PPADS]	–	41 ± 0.4
